According to PMC10895678 (Journal of Medicinal Chemistry, 2024):
Values joined by “and” are separate entries in the source; they are usually repeats but may differ in a detail not shown here. Identical values can stand only once. Like-named read-outs stand apart in the source and are kept apart here.

Experiment: Mouse PK, combined (cassette) dosing of BGAz-001–005
Type: in vivo, KM mice
Parameters: AUMC(0-t) / VRT(0-t) / λz: unit not given here
Conditions: for MRT last: read-out: MRT(0-t); for MRT inf: read-out: MRT(0-∞); for Vd/F: read-out: Vz/F
Excerpt: Methods for combined single dosing (BGAz001–005) and dosing of single compounds multiple times (BGAz004 and BGAz005) are described in detail in the Supporting Information (PK Data).
Report on PK Results of Combined Dosing with BGAz-001–005
1 Materials and instrument combined dosing
An MS2 Turnover type oscillator was purchased from IKA Work’s Guangzhou (China), and a 5415R ChromatographicanalyseswereconductedusinganAgilent1290InfinityIIhighperformanceliquidchromatography andAgilentTechnologies6470TripleQuadLC/MS.Propranolol(≥90%inpurity,internalstandard,IS)waspurchased fromtheSigmaChemicalCo.(China).Formicacid(HPLCgrade)andmethanol(HPLCgrade)werepurchasedfrom DIKMACo.(China).Allchemicalsandsolventswereanalyticalgrade.WaterwaspurifiedusingaMillipore(AK,USA) laboratoryultra-purewatersystem(0.2μmfilter).
KMmice,weighing25–35g(BeijingVitalRiverLaboratoryAnimalTechnologyCo.,Ltd.,China)wereutilisedforthe studies.The protocols were approved by the Animal Care and Use Committee, GIBH. Animals were maintained on standard animal chow and waterad libitum, in a climate-controlled room (23±1 °C 30–70% relative humidity, a minimumof tenexchangesof roomairperhouranda12hlight/darkcycle)foroneweekpriortoexperiments.
3 Pharmacokinetic studies
Compounds BGAz-001 ，BGAz-002 ，BGAz-003 ，BGAz-004 and BGAz-005 were dissolved mixed in a solution containing DMSO (2%),ethanol (4%), Cremophor EL (4%) and ddH2O (90%); Pharmacokinetic propertiesof KM (male) were determined following IV, PO and IP administration. Animals were randomly distributed into three experimentalgroups(n=4).ThePOgroupwasgivenmixedsolutionwith5mg/kgbygastricgavage.TheIVgroup was dosed with mixed solution 1mg/kg byinjection into the tail vein. The IP group was dosed with mixed solution 1mg/kg by intraperitoneal injection. After single administration, whole blood samples (100 μL) were obtained from the orbital venousplexus atthe followingtime pointsafter dosing:5, 15,30 minand 1,3, 5,8, 24hour (PO and IP groups) and at the following time points after dosing 2, 10, 30min and 1, 3, 5, 8,24 hour (IV group). Wholeblood samples were collected in heparinised tubes. The plasma fraction was immediately separated by centrifugation. The micewerehumanelyeuthanasiabycarbondioxide24hoursafterexperimentwithoutpain.
4 Plasma sample and brain sample analysis
4.1 Standard curve sample preparation
ThecompoundsweredissolvedinDMSO(2mg/mL)anddilutedwithtoseriesconcentration(methanol:H 2O,1:1,10 μL) and blank plasma (50 μL) were added to 1.5 mL tubes and vortexed for 3 min, then acetonitrile-containing internalstandard(150μL)wasaddedandvortexedforafurther5min,andsubsequentlyspuninacentrifugeat13000 […]
4.2 Plasma and preparation
Plasmasampleswerepreparedusingaproteinprecipitationmethod.Solution(10μL,methanolH 2O,1:1)andplasma samples(50μL)wereaddedto1.5mLtubesandvortexfor3min,thenacetonitrile-containinginternalstandard(150 μL)wasaddedandvortexfor5min,andsubsequentlyspuninacentrifugeat13000× gfor40minat4°C.
Aftercentrifugation,supernatant(100μL)wastransferto96wellplatesandanalysedbyLC-MS/MSusinganAgilent 1290InfinityIIHPLCandanAgilentTechnologies6470TripleQuadLC/MS.

[1] = IP 1 mg/kg, cassette, mean of animals
[2] = IV 1 mg/kg, cassette, mean of animals
[3] = PO 5 mg/kg, cassette, mean of animals
[4] = male, KM, mouse, plasma, IP 1 mg/kg, cassette
[5] = male, KM, mouse, plasma, IP 1 mg/kg, cassette, mean of animals
[6] = male, KM, mouse, plasma, IV 1 mg/kg, cassette
[7] = male, KM, mouse, plasma, IV 1 mg/kg, cassette, mean of animals
[8] = male, KM, mouse, plasma, PO 5 mg/kg, cassette
[9] = male, KM, mouse, plasma, PO 5 mg/kg, cassette, mean of animals

SMILES: FC(F)(F)Oc1ccc(C2CC(CN3CCCC3)N2Cc2ccccc2OC(F)(F)F)cc1 (stereo not drawn) [BGAz-002]
- AUC(0-t) [1]: 390.877 µg
- AUC(0-∞) [1]: 629.982 µg
- AUMC(0-t) [1]: 3917.162 **μg
- AUMC(0-∞) [1]: 17064.651 **μg
- CLz/F [1]: 1.79 L/kg
- C_last [1]: 8.556 µg
- R_AUC(t/∞) [1]: 67.725%
- VRT(0-t) [1]: 72.869 ^2
- VRT(0-∞) [1]: 649.236 ^2
- λz [1]: 0.051 1/
- AUC(0-∞) (IP 1 mg/kg, cassette, summary table): 629.982 µg·h
- AUC(0-t) [2]: 395.775 µg
- AUC(0-∞) [2]: 440.39 µg
- AUMC(0-t) [2]: 2604.325 **μg
- AUMC(0-∞) [2]: 4336.305 **μg
- CLz/F [2]: 2.306 L/kg
- C_last [2]: 3.185 µg
- R_AUC(t/∞) [2]: 89.5%
- VRT(0-t) [2]: 48.868 ^2
- VRT(0-∞) [2]: 164.25 ^2
- Vz/F [2]: 28.224 L/kg
- λz [2]: 0.099 1/
- AUC(0-∞) (IV 1 mg/kg, cassette, summary table): 440.39 µg·h
- BA (PO 5 mg/kg vs IV 1 mg/kg, cassette): 57.59%
- AUC(0-t) [3]: 642.368 µg
- AUC(0-∞) [3]: 1268.031 µg
- AUMC(0-t) [3]: 6099.109 **μg
- AUMC(0-∞) [3]: 48726.538 **μg
- CLz/F [3]: 11.484 L/kg
- C_last [3]: 17.369 µg
- R_AUC(t/∞) [3]: 64%
- VRT(0-t) [3]: 48.138 ^2
- VRT(0-∞) [3]: 1193.792 ^2
- λz [3]: 0.025 1/
- AUC(0-∞) (PO 5 mg/kg, cassette, summary table): 1268.03 µg·h
- Cmax (male, KM, mouse, plasma, ip, 1 mg/kg, IP 1 mg/kg, cassette, mean of animals, read-out: Cmax): 40 ng/mL
- Tmax (male, KM, mouse, plasma, ip, 1 mg/kg, IP 1 mg/kg, cassette, mean of animals, read-out: Tmax): 0.167 h
- Cmax (male, KM, mouse, plasma, ip, 1 mg/kg, IP 1 mg/kg, cassette, summary table, read-out: Cmax): 40 ng/mL
- half-life (male, KM, mouse, plasma, ip, 1 mg/kg, IP 1 mg/kg, cassette, summary table, read-out: T1/2 (converted)): 16.1 h
- Tmax (male, KM, mouse, plasma, ip, 1 mg/kg, IP 1 mg/kg, cassette, summary table, read-out: Tmax): 0.167 h
- Cmax (male, KM, mouse, plasma, iv, 1 mg/kg, IV 1 mg/kg, cassette, mean of animals, read-out: Cmax): 189 ng/mL
- Tmax (male, KM, mouse, plasma, iv, 1 mg/kg, IV 1 mg/kg, cassette, mean of animals, read-out: Tmax): 0.033 h
- Cmax (male, KM, mouse, plasma, iv, 1 mg/kg, IV 1 mg/kg, cassette, summary table, read-out: Cmax): 189 ng/mL
- half-life (male, KM, mouse, plasma, iv, 1 mg/kg, IV 1 mg/kg, cassette, summary table, read-out: T1/2 (converted)): 8.35 h
- Tmax (male, KM, mouse, plasma, iv, 1 mg/kg, IV 1 mg/kg, cassette, summary table, read-out: Tmax): 0.033 h
- AUC(0-inf) (male, KM, mouse, plasma, po, 5 mg/kg, 5 mg/kg PO, cassette dosing, read-out: AUC0-inf): 1270 ng·h/mL
- Cmax (male, KM, mouse, plasma, po, 5 mg/kg, 5 mg/kg PO, cassette dosing, read-out: Cmax (Mouse, P.O.)): 53.9 ng/mL
- half-life (male, KM, mouse, plasma, po, 5 mg/kg, 5 mg/kg PO, cassette dosing, read-out: T1/2 (Mouse, P.O.) (converted)): 24.9 h
- Tmax (male, KM, mouse, plasma, po, 5 mg/kg, 5 mg/kg PO, cassette dosing, read-out: Tmax (Mouse, P.O.)): 1.87 h
- Cmax (male, KM, mouse, plasma, po, 5 mg/kg, PO 5 mg/kg, cassette, mean of animals, read-out: Cmax): 53.9 ng/mL
- Tmax (male, KM, mouse, plasma, po, 5 mg/kg, PO 5 mg/kg, cassette, mean of animals, read-out: Tmax): 1.88 h
- Cmax (male, KM, mouse, plasma, po, 5 mg/kg, PO 5 mg/kg, cassette, summary table, read-out: Cmax): 53.9 ng/mL
- half-life (male, KM, mouse, plasma, po, 5 mg/kg, PO 5 mg/kg, cassette, summary table, read-out: T1/2 (converted)): 24.9 h
- Tmax (male, KM, mouse, plasma, po, 5 mg/kg, PO 5 mg/kg, cassette, summary table, read-out: Tmax): 1.88 h
- concentration at 0.083 h [4]: 37.4 ng/mL and 80 nM
- concentration at 0.25 h [4]: 80 nM and 38.8 ng/mL
- concentration at 0.5 h [4]: 70 nM and 32.6 ng/mL
- concentration at 1 h [4]: 50 nM and 25.8 ng/mL
- concentration at 3 h [4]: 50 nM and 24 ng/mL
- concentration at 5 h [4]: 40 nM and 17 ng/mL
- concentration at 8 h [4]: 30 nM and 15 ng/mL
- concentration at 24 h [4]: 30 nM and 12.4 ng/mL
- MRT last [5]: 10.1 h
- MRT inf [5]: 23.7 h
- Vd/F [5]: 36.8 L/kg
- concentration at 0.033 h (male, KM, mouse, plasma, IV 1 mg/kg, cassette, 0.033 h): 189 ng/mL and 400 nM
- concentration at 0.167 h (male, KM, mouse, plasma, IV 1 mg/kg, cassette, 0.167 h): 210 nM and 98.9 ng/mL
- concentration at 0.5 h [6]: 130 nM and 62.5 ng/mL
- concentration at 1 h [6]: 100 nM and 45.6 ng/mL
- concentration at 3 h [6]: 60 nM and 28.3 ng/mL
- concentration at 5 h [6]: 40 nM and 18.3 ng/mL
- concentration at 8 h [6]: 30 nM and 12.5 ng/mL
- concentration at 24 h [6]: 10 nM and 6.16 ng/mL
- C0 [7]: 222 ng/mL
- MRT last [7]: 6.46 h
- MRT inf [7]: 9.9 h
- concentration at 0.083 h [8]: 16.4 ng/mL and 30 nM
- concentration at 0.25 h [8]: 50 nM and 25.1 ng/mL
- concentration at 0.5 h [8]: 80 nM and 37.7 ng/mL
- concentration at 1 h [8]: 100 nM and 49.3 ng/mL
- concentration at 3 h [8]: 100 nM and 49.4 ng/mL
- concentration at 5 h [8]: 80 nM and 40.1 ng/mL
- concentration at 8 h [8]: 80 nM and 36.7 ng/mL
- concentration at 24 h [8]: 50 nM and 22.9 ng/mL
- MRT last [9]: 7.92 h
- MRT inf [9]: 27.5 h
- Vd/F [9]: 104 L/kg
